Assay results from US20250109135A1, “NOVEL ISOINDOLINONE DERIVATIVE COMPOUNDS AS CASPASE INHIBITORS” (INNOVO THERAPEUTICS INC., priority 2022, published 2025).
Like-named read-outs stand apart in the source and are kept apart here.

How the values were obtained:
[1] = biological target: T1, recombinant human Caspase-1 (Homo sapiens, UniProt P29466); assay: Caspase-1 inhibitory activity, fluorescent substrate Ac-YVAD-AFC; format: biochemical
T1 construct: purchased Enzo life science
T1 sequence (P29466 120-297 limits assumed): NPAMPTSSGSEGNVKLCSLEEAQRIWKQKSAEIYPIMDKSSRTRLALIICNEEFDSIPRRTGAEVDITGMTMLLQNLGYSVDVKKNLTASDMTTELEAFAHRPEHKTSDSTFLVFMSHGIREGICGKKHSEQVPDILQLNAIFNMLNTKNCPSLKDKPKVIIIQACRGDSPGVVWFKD
T1 sequence (P29466 317-404 limits assumed): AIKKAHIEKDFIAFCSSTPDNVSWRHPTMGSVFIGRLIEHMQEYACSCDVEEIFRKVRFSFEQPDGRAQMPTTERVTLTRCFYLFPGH
Protocol: To determine the Caspase-1 inhibitory activity of the compounds of the present invention prepared in Example, Caspase-1 activity was measured using a substrate with a fluorescent dye attached to it. […] The compound was dissolved in DMSO and stored at −20° C. Enzymatic reactions were carried out in a buffer comprising 50 mM HEPES (pH 8.0), 50 mM KCl, 200 mM NaCl, 10 mM DTT, 0.1% CHAPS (w/v). Enzyme inactivation was measured in the presence of different concentrations of the compound using the fluorescent substrate N-Acetyl-Tyr-Val-Ala-Asp-7-amido-4-trifluoromethylcoumarin (Ac-YVAD-AFC) (Sigma) at a concentration of 50 μM and 1 unit of recombinant human Caspase-1 (Enzo life science). A CLARIOstar Plus spectrometer (BMG Labtech) was used to measure the reaction rate as a function of time in the 400/505 nm (Ex/Em) wavelength band. […] If kobs/[I] is 20 or more, it is denoted as A, if it is 10 or more but less than 20, it is denoted as B, if it is 1 or more but less than 10, it is denoted as C, and if it is less than 1, it is denoted as D.
In the above equation, At means the enzyme reaction rate at time t (min), and Amax means the maximum reaction rate.

[2] = system: Secreted IL-1β in THP-1 cells; assay: Interleukin-1β inhibitory activity in human monocytic cells THP-1 (ELISA); format: cell-based; conditions: compound 100 nM, PMA-differentiated THP-1, LPS 10 μg/ml then 5 mM ATP, 24 h
Protocol: Caspase-1 is known as […] (ICE). Activated Caspase-1 is involved in the cleavage of pro-form IL-1β to produce the mature form, which is then secreted to induce inflammation. Therefore, the compounds identified in Experimental example 1 were tested to determine if their Caspase-1 inhibitory activity affected the production of […].
THP-1 (ATCC) cells were cultured in RPMI 1640 (Hyclone) growth medium comprising 10% Fetal bovine serum (FBS, Gibco) and antibiotics (100 U/ml Penicillin, 0.1 mg/ml Streptomycin, Cytiva) under 37° C., 5% CO2 conditions. Cultured THP-1 cells were seeded in growth medium to a concentration of 3×10^5 cells/well in 24-well plates (Celvest) and then treated with 1 μM Phorbol 12-myristate 13-acetate (PMA) (Sigma) for 24 hours to induce differentiation. Differentiated THP-1 were pre treated with 10 μg/ml Lipopolysaccharide (LPS, from E. coli 0111:B4 (InvivoGen)) in serum free RPMI 1640 medium for 24 hours to induce an inflammatory response. After removal of LPS, the compounds were pretreated for 1 h at a concentration of 100 nM using the same medium, followed by the addition of 5 mM ATP (InvivoGen) and incubation for 24 h in an incubator. The treated medium was collected and centrifuged, and IL-1β was quantified using an Enzyme linked immunoassay kit (ELISA kit, R&D system), and absorbance was measured at 450 nm using a CLARIOstar Plus spectrometer. Inhibitory activity was denoted as a if it was 50% or more, b if it was 30% or more but less than 50%, c if it was 10% or more but less than 30%, and d if it was less than 10%.

[3] = pH 8, read-out: kobs/[I] Caspase-1
[4] = pH 8, 1 unit recombinant human Caspase-1, 50 μM Ac-YVAD-AFC, read-out: kobs/[I] Caspase-1

SMILES	kinact/KI [1, 3] [M⁻¹ s⁻¹]	inhibition at 0.1 µM [2] [%]	kinact/KI [1, 4] [M⁻¹ s⁻¹]
C[C@@H](C(=O)NC(CC(=O)O)C(=O)CF)N1Cc2ccc(-c3ccc4[nH]c(=O)[nH]c4c3)cc2C1=O (some centres unmarked) [Compound 47, 5-fluoro-4-oxo-3-(2-(1-oxo-6-(2-oxo-2,3-dihydro-1H-benzo[d]imidazol-5-yl)isoindolin-2-yl)propanamido)pentanoic acid]	0.0167 to 0.167	–	–
CCC(C(=O)NC(CC(=O)O)C(=O)CF)N1Cc2ccc(-c3cccc4ncccc34)cc2C1=O (centres unmarked) [Compound 34, 5-fluoro-4-oxo-3-(2-(1-oxo-6-(quinolin-5-yl)isoindolin-2-yl)butanamido)pentanoic acid]	–	< 10	0.0167 to 0.167
CCC(C(=O)NC(CC(=O)O)C(=O)CF)N1Cc2ccc(-c3ccc(C(=O)O)cc3)cc2C1=O (centres unmarked) [Compound 17, 4-(2-(1-((1-carboxy-4-fluoro-3-oxobutan-2-yl)amino)-1-oxobutan-2-yl)-3-oxoisoindolin-5-yl)benzoic acid]	–	10 to 30	0.0167 to 0.167
CC[C@@H](C(=O)NC(CC(=O)O)C(=O)CF)N1Cc2cc(-c3csc4ccccc34)ccc2C1=O (stereo partly drawn) [Compound 59, 3-((S)-2-(5-(benzo[b]thiophen-3-yl)-1-oxoisoindolin-2-yl)butanamido)-5-fluoro-4-oxopentanoic acid]	< 0.0167	< 10	–
CCC(C(=O)NC(CC(=O)O)C(=O)CF)N1Cc2ccc(-c3ccc4scnc4c3)cc2C1=O (centres unmarked) [Compound 32, 3-(2-(6-(benzo[d]thiazol-5-yl)-1-oxoisoindolin-2-yl)butanamido)-5-fluoro-4-oxopentanoic acid]	–	< 10	0.0167 to 0.167
CC(C)[C@@H](C(=O)NC(CC(=O)O)C(=O)CF)N1Cc2ccc(N3CCCC3)cc2C1=O (stereo partly drawn) [Compound 43, 5-fluoro-3-((S)-3-methyl-2-(1-oxo-6-(pyrrolidin-1-yl)isoindolin-2-yl)butanamido)-4-oxopentanoic acid]	< 0.0167	10 to 30	–
CCC(C(=O)NC(CC(=O)O)C(=O)CF)N1Cc2ccc(-c3cccc4ccncc34)cc2C1=O (centres unmarked) [Compound 35, 5-fluoro-3-(2-(6-(isoquinolin-8-yl)-1-oxoisoindolin-2-yl)butanamido)-4-oxopentanoic acid]	0.0167 to 0.167	< 10	–
CCC(C(=O)NC(CC(=O)O)C(=O)CF)N1Cc2ccc(-c3cnn4ccccc34)cc2C1=O (centres unmarked) [Compound 33, 5-fluoro-4-oxo-3-(2-(1-oxo-6-(pyrazolo[1,5-a]pyridin-3-yl)isoindolin-2-yl)butanamido)pentanoic acid]	–	< 10	0.0167 to 0.167
CCC(C(=O)NC(CC(=O)O)C(=O)CF)N1Cc2ccc(-c3ccsc3)cc2C1=O (centres unmarked) [Compound 28, 5-fluoro-4-oxo-3-(2-(1-oxo-6-(thiophen-3-yl)isoindolin-2-yl)butanamido)pentanoic acid]	–	10 to 30	0.0167 to 0.167
C[C@@H](C(=O)NC(CC(=O)O)C(=O)CF)N1Cc2ccc(-c3coc4ccccc34)cc2C1=O (some centres unmarked) [Compound 49, 3-(2-(6-(benzofuran-3-yl)-1-oxoisoindolin-2-yl)propanamido)-5-fluoro-4-oxopentanoic acid]	–	–	0.167 to 0.333
C[C@@H](C(=O)NC(CC(=O)O)C(=O)CF)N1Cc2ccc(-c3ccc4c(c3)OCCO4)cc2C1=O (some centres unmarked) [Compound 48, 3-(2-(6-(2,3-dihydrobenzo[b][1,4]dioxin-6-yl)-1-oxoisoindolin-2-yl)propanamido)-5-fluoro-4-oxopentanoic acid]	–	–	< 0.0167
CCC(C(=O)NC(CC(=O)O)C(=O)CF)N1Cc2ccc(-c3ccc(C(F)(F)F)cc3)cc2C1=O (centres unmarked) [Compound 14, 5-fluoro-4-oxo-3-(2-(1-oxo-6-(4-(trifluoromethyl)phenyl)isoindolin-2-yl)butanamido)pentanoic acid]	–	< 10	0.0167 to 0.167
CCC(C(=O)NC(CC(=O)O)C(=O)CF)N1Cc2ccc(-c3ccnc(N)c3)cc2C1=O (centres unmarked) [Compound 23, 3-(2-(6-(2-aminopyridin-4-yl)-1-oxoisoindolin-2-yl)butanamido)-5-fluoro-4-oxopentanoic acid]	–	< 10	0.0167 to 0.167
CC[C@@H](C(=O)NC(CC(=O)O)C(=O)CF)N1Cc2cc(N3CCn4cc(C(F)(F)F)nc4C3)ccc2C1=O (stereo partly drawn) [Compound 62, 5-fluoro-4-oxo-3-((S)-2-(1-oxo-5-(2-(trifluoromethyl)-5,6-dihydroimidazo[1,2-a]pyrazin-7(8H)-yl)isoindolin-2-yl)butanamido)pentanoic acid]	< 0.0167	–	–
CCC(C(=O)NC(CC(=O)O)C(=O)CF)N1Cc2ccc(-c3cnc(N)nc3)cc2C1=O (centres unmarked) [Compound 21]	–	30 to 50	0.0167 to 0.167
CCC(C(=O)NC(CC(=O)O)C(=O)CF)N1Cc2ccc(Nc3cccc4ccccc34)cc2C1=O (centres unmarked) [Compound 11, 5-fluoro-3-(2-(6-(naphthalen-1-ylamino)-1-oxoisoindolin-2-yl)butanamido)-4-oxopentanoic acid]	–	30 to 50	< 0.0167
CC[C@@H](C(=O)N[C@@H](CC(=O)O)C(=O)COc1c(F)c(F)cc(F)c1F)N1Cc2ccc(N3CCCC3)cc2C1=O [Compound 53, (S)-4-oxo-3-((S)-2-(1-oxo-6-(pyrrolidin-1-yl)isoindolin-2-yl)butanamido)-5-(2,3,5,6-tetrafluorophenoxy)pentanoic acid]	0.0167 to 0.167	< 10	–
CCC(C(=O)NC(CC(=O)O)C(=O)CF)N1Cc2ccc(N3CCN(c4nsc5ccccc45)CC3)cc2C1=O (centres unmarked) [Compound 19, 3-(2-(6-(4-(benzo[d]isothiazol-3-yl)piperazin-1-yl)-1-oxoisoindolin-2-yl)butanamido)-5-fluoro-4-oxopentanoic acid]	–	< 10	< 0.0167
CCC(C(=O)NC(CC(=O)O)C(=O)CF)N1Cc2ccc(C3=CCN(S(C)(=O)=O)CC3)cc2C1=O (centres unmarked) [Compound 7, 5-fluoro-3-(2-(6-(1-(methylsulfonyl)-1,2,3,6-tetrahydropyridin-4-yl)-1-oxoisoindolin-2-yl)butanamido)-4-oxopentanoic acid]	–	< 10	0.0167 to 0.167
CCC(C(=O)NC(CC(=O)O)C(=O)CF)N1Cc2ccc(-c3cnn(C)c3)cc2C1=O (centres unmarked) [Compound 24, 5-fluoro-3-(2-(6-(1-methyl-1H-pyrazol-4-yl)-1-oxoisoindolin-2-yl)butanamido)-4-oxopentanoic acid]	–	10 to 30	0.0167 to 0.167
CCC(C(=O)NC(CC(=O)O)C(=O)CF)N1Cc2ccc(-c3ccnc4ccccc34)cc2C1=O (centres unmarked) [Compound 31, 5-fluoro-4-oxo-3-(2-(1-oxo-6-(quinolin-4-yl)isoindolin-2-yl)butanamido)pentanoic acid]	–	< 10	0.0167 to 0.167
CC[C@@H](C(=O)NC(CC(=O)O)C(=O)CF)N1Cc2cc(N3CCN(c4nsc5ccccc45)CC3)ccc2C1=O (stereo partly drawn) [Compound 63, 3-((S)-2-(5-(4-(benzo[d]isothiazol-3-yl)piperazin-1-yl)-1-oxoisoindolin-2-yl)butanamido)-5-fluoro-4-oxopentanoic acid]	< 0.0167	–	–
C[C@@H](C(=O)NC(CC(=O)O)C(=O)CF)N1Cc2ccc(N3CCCC3)cc2C1=O (some centres unmarked) [Compound 46, 5-fluoro-4-oxo-3-(2-(1-oxo-6-(pyrrolidin-1-yl)isoindolin-2-yl)propanamido)pentanoic acid]	< 0.0167	–	–
CC[C@@H](C(=O)NC(CC(=O)O)C(=O)CF)N1Cc2cc(N3CCCC3)ccc2C1=O (stereo partly drawn) [Compound 64, 5-fluoro-4-oxo-3-((S)-2-(1-oxo-5-(pyrrolidin-1-yl)isoindolin-2-yl)butanamido)pentanoic acid]	< 0.0167	–	–
